Reference: the kinase profiling compilation of Christmann-Franck et al. (2016)

Legend:
Assay in all cases: radiometric filter-binding kinase assay, Kinase HotSpot
Details in all cases: compound 0.5 µM; ATP 10 µM
IKBKE (human) = IKBKE (human) (UniProt Q14164)
GRK4 (human) = GRK4 (human) (UniProt P32298)
FRK (human) = FRK (human) (UniProt P42685)
TSSK1B (human) = TSSK1B (human) (UniProt Q9BXA7)
MAP2K2 (human) = MAP2K2 (human) (UniProt P36507)
CSNK1G3 (human) = CSNK1G3 (human) (UniProt Q9Y6M4)
GRK5 (human) = GRK5 (human) (UniProt P34947)
[1] = system: SGK1 (human), O00141 [S422D]
MST1R (human) = MST1R (human) (UniProt Q04912)
MAPKAPK3 (human) = MAPKAPK3 (human) (UniProt Q16644)
PRKCB1 (human) = PRKCB1 (human) (UniProt P05771)
GSK3A (human) = GSK3A (human) (UniProt P49840)
FLT1 (human) = FLT1 (human) (UniProt P17948)
NEK6 (human) = NEK6 (human) (UniProt Q9HC98)
EPHA3 (human) = EPHA3 (human) (UniProt P29320)
SRPK1 (human) = SRPK1 (human) (UniProt Q96SB4)
NEK7 (human) = NEK7 (human) (UniProt Q8TDX7)
FGFR3 (human) = FGFR3 (human) (UniProt P22607)
MARK4 (human) = MARK4 (human) (UniProt Q96L34)
PRKD3 (human) = PRKD3 (human) (UniProt O94806)
MELK (human) = MELK (human) (UniProt Q14680)
PAK2 (human) = PAK2 (human) (UniProt Q13177)
DAPK3 (human) = DAPK3 (human) (UniProt O43293)
PRKCG (human) = PRKCG (human) (UniProt P05129)
PRKCH (human) = PRKCH (human) (UniProt P24723)
CAMKK1 (human) = CAMKK1 (human) (UniProt Q8N5S9)
CDK1 CCNA2 (human) = CDK1 CCNA2 (human) (UniProt P06493+P20248)
HIPK2 (human) = HIPK2 (human) (UniProt Q9H2X6)
CAMK4 (human) = CAMK4 (human) (UniProt Q16566)
CHEK2 (human) = CHEK2 (human) (UniProt O96017)
PBK (human) = PBK (human) (UniProt Q96KB5)
FLT3 (human) = FLT3 (human) (UniProt P36888)
DYRK1A (human) = DYRK1A (human) (UniProt Q13627)
CDK5 CDK5R1 p25 (human) = CDK5 CDK5R1 p25 (human) (UniProt Q00535+Q15078)
SRPK2 (human) = SRPK2 (human) (UniProt P78362)
ABL1 (human) = ABL1 (human) (UniProt P00519)
AURKA (human) = AURKA (human) (UniProt O14965)
PHKG2 (human) = PHKG2 (human) (UniProt P15735)
PRKG2 (human) = PRKG2 (human) (UniProt Q13237)
ROCK1 (human) = ROCK1 (human) (UniProt Q13464)
MAPKAPK5 (human) = MAPKAPK5 (human) (UniProt Q8IW41)
EPHA1 (human) = EPHA1 (human) (UniProt P21709)

MAPKAPK3 (human), sequence (Q16644 whole entry, looked up): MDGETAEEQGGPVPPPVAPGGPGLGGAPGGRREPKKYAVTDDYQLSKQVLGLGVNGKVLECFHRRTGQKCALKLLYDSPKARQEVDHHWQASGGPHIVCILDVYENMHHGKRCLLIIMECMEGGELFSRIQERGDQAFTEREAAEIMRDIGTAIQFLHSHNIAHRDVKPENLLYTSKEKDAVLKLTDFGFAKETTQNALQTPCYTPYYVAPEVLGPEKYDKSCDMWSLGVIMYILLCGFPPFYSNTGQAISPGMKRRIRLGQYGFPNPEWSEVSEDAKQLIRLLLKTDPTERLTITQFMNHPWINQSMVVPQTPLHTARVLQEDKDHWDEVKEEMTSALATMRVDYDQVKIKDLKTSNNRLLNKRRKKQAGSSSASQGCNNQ
FRK (human), sequence (P42685 whole entry, looked up): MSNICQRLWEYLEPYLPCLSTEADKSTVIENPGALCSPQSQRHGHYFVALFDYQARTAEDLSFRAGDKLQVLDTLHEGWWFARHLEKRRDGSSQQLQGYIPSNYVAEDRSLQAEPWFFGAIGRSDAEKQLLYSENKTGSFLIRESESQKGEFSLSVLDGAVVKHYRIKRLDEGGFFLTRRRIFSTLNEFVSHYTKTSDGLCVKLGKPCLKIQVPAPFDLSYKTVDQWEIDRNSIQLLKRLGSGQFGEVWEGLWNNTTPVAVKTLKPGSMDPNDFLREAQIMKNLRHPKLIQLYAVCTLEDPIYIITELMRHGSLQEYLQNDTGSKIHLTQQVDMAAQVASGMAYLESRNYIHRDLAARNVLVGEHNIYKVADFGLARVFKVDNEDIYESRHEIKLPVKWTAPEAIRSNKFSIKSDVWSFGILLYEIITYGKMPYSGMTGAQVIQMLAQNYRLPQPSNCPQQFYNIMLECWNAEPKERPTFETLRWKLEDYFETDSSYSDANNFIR
PRKCB1 (human), sequence (P05771 whole entry, looked up): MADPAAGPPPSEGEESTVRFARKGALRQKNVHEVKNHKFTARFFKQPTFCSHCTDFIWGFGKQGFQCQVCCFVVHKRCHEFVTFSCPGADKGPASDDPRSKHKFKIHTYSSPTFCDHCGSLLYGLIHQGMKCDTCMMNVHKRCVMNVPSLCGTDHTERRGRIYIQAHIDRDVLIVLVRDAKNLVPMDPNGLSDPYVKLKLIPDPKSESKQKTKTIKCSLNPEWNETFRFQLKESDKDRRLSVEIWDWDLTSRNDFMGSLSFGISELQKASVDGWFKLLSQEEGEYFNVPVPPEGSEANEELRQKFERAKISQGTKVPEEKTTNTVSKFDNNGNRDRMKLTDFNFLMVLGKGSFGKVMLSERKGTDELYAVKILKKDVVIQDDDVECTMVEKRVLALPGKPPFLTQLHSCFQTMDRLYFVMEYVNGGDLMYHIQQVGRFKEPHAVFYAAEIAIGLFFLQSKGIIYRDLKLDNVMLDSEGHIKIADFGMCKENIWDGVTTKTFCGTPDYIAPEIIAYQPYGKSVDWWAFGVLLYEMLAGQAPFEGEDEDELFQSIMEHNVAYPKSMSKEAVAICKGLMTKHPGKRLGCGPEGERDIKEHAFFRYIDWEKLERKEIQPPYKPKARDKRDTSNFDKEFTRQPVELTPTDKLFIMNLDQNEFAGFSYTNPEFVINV
SGK1 (human), O00141 [S422D], sequence (O00141 whole entry S422D, looked up): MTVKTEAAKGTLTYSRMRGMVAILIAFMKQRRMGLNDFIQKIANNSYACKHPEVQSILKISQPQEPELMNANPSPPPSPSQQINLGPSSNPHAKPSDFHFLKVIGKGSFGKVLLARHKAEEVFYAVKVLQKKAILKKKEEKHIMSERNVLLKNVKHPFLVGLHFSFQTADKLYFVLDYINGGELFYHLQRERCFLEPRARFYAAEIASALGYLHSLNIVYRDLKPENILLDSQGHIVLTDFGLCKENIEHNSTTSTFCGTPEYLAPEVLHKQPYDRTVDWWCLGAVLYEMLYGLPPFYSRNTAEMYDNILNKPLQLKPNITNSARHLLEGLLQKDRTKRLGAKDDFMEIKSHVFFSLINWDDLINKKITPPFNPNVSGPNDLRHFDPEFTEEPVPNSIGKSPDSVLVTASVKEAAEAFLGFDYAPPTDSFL
MELK (human), sequence (Q14680 whole entry, looked up): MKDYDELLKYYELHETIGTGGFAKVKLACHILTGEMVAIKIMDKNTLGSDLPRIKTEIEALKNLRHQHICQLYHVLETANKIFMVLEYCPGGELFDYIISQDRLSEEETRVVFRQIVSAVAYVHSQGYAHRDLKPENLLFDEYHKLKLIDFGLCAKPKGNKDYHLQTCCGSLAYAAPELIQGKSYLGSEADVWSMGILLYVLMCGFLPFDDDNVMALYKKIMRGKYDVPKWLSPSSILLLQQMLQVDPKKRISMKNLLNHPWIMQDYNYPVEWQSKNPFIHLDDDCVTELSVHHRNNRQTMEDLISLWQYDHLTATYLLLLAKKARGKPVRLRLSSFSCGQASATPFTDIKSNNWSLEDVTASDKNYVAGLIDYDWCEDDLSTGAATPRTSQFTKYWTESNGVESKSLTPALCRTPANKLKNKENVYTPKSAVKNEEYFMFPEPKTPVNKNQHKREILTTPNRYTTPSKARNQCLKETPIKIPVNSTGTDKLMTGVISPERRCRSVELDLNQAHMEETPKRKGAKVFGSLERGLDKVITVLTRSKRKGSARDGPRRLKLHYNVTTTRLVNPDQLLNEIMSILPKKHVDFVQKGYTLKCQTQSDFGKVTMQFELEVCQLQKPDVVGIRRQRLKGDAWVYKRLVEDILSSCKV
FGFR3 (human), sequence (P22607 whole entry, looked up): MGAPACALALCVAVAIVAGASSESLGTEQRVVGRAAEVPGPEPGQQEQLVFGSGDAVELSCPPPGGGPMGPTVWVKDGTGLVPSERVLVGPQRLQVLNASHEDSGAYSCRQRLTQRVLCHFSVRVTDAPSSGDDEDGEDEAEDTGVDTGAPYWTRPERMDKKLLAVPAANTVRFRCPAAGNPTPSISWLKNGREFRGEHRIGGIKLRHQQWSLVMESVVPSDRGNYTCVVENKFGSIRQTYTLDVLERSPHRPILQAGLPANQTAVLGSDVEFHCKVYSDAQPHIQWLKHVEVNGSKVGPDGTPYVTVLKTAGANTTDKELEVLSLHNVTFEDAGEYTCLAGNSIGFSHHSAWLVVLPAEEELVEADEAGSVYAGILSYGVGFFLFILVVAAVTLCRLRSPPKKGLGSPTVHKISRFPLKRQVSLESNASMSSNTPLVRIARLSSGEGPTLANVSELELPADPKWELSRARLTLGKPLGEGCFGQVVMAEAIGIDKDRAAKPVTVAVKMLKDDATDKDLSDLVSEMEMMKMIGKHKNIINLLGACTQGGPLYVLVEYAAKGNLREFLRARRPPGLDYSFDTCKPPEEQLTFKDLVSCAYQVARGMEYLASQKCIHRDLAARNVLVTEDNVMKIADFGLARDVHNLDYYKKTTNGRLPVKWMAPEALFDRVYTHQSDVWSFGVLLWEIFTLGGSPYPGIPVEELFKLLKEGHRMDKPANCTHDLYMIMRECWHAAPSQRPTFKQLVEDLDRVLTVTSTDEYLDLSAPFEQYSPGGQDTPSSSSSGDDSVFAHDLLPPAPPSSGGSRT
AURKA (human), sequence (O14965 whole entry, looked up): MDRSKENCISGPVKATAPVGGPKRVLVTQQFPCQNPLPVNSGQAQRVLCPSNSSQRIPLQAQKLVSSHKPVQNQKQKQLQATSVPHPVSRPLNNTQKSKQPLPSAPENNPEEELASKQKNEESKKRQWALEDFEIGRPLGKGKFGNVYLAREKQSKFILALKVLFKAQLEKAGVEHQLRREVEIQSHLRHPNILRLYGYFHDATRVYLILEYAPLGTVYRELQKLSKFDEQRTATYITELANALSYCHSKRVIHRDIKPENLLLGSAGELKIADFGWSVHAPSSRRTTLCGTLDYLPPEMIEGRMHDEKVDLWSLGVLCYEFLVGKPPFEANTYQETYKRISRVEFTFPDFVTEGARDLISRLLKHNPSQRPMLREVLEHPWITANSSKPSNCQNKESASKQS
MAP2K2 (human), sequence (P36507 whole entry, looked up): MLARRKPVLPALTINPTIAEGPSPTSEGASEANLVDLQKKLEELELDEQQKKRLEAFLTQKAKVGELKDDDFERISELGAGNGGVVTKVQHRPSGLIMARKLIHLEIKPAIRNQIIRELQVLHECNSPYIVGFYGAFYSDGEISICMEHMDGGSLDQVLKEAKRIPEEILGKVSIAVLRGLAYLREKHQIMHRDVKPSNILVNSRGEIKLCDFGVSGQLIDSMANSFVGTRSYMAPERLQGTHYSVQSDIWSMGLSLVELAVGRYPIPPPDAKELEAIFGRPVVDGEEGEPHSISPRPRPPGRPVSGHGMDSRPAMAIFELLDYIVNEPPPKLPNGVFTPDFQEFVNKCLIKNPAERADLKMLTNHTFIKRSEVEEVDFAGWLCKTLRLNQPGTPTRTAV

N#CCCc1ccc2c(c1)-c1[nH]c3ccc([N+](=O)[O-])cc3c1CC(=O)N2
residual activity (IKBKE (human)): 89.2%
residual activity (GRK4 (human)): 101%
residual activity (FRK (human)): 92.7%
residual activity (TSSK1B (human)): 59.2%
residual activity (MAP2K2 (human)): 90.3%
residual activity (CSNK1G3 (human)): 89.7%
residual activity (GRK5 (human)): 103%
residual activity [1]: 87.9%
residual activity (MST1R (human)): 107%
residual activity (MAPKAPK3 (human)): 96.8%
residual activity (PRKCB1 (human)): 97.4%
residual activity (GSK3A (human)): 0.804%
residual activity (FLT1 (human)): 99.7%
residual activity (NEK6 (human)): 101%
residual activity (EPHA3 (human)): 93.9%
residual activity (SRPK1 (human)): 107%
residual activity (NEK7 (human)): 87.4%
residual activity (FGFR3 (human)): 90.3%
residual activity (MARK4 (human)): 62.5%
residual activity (PRKD3 (human)): 84%
residual activity (MELK (human)): 88.6%
residual activity (PAK2 (human)): 55.6%
residual activity (DAPK3 (human)): 99.3%
residual activity (PRKCG (human)): 93.3%
residual activity (PRKCH (human)): 99.4%
residual activity (CAMKK1 (human)): 86.7%
residual activity (CDK1 CCNA2 (human)): 24.8%
residual activity (HIPK2 (human)): 106%
residual activity (CAMK4 (human)): 98.4%
residual activity (CHEK2 (human)): 12.6%
residual activity (PBK (human)): 95.4%
residual activity (FLT3 (human)): 15.1%
residual activity (DYRK1A (human)): 85.9%
residual activity (CDK5 CDK5R1 p25 (human)): 5.79%
residual activity (SRPK2 (human)): 109%
residual activity (ABL1 (human)): 47.8%
residual activity (AURKA (human)): 78.7%
residual activity (PHKG2 (human)): 99.1%
residual activity (PRKG2 (human)): 93.9%
residual activity (ROCK1 (human)): 38.9%
residual activity (MAPKAPK5 (human)): 94.3%
residual activity (EPHA1 (human)): 91.7%

O=C(c1ccccc1)c1ccc(N2CCOCC2)cc1O
residual activity (IKBKE (human)): 101%
residual activity (GRK4 (human)): 104%
residual activity (FRK (human)): 102%
residual activity (TSSK1B (human)): 107%
residual activity (MAP2K2 (human)): 101%
residual activity (CSNK1G3 (human)): 98.8%
residual activity (GRK5 (human)): 105%
residual activity [1]: 101%
residual activity (MST1R (human)): 106%
residual activity (MAPKAPK3 (human)): 106%
residual activity (PRKCB1 (human)): 90.1%
residual activity (GSK3A (human)): 102%
residual activity (FLT1 (human)): 97.4%
residual activity (NEK6 (human)): 95%
residual activity (EPHA3 (human)): 105%
residual activity (SRPK1 (human)): 94.2%
residual activity (NEK7 (human)): 104%
residual activity (FGFR3 (human)): 104%
residual activity (MARK4 (human)): 100%
residual activity (PRKD3 (human)): 96.1%
residual activity (MELK (human)): 103%
residual activity (PAK2 (human)): 103%
residual activity (DAPK3 (human)): 100%
residual activity (PRKCG (human)): 95.6%
residual activity (PRKCH (human)): 70%
residual activity (CAMKK1 (human)): 107%
residual activity (CDK1 CCNA2 (human)): 103%
residual activity (HIPK2 (human)): 105%
residual activity (CAMK4 (human)): 94.7%
residual activity (CHEK2 (human)): 106%
residual activity (PBK (human)): 114%
residual activity (FLT3 (human)): 90.6%
residual activity (DYRK1A (human)): 101%
residual activity (CDK5 CDK5R1 p25 (human)): 98.8%
residual activity (SRPK2 (human)): 102%
residual activity (ABL1 (human)): 102%
residual activity (AURKA (human)): 108%
residual activity (PHKG2 (human)): 101%
residual activity (PRKG2 (human)): 102%
residual activity (ROCK1 (human)): 93.4%
residual activity (MAPKAPK5 (human)): 99.8%
residual activity (EPHA1 (human)): 89.1%
